Where two headings read alike, the source gives them in different places.
Experiments:
TNFα = assay: Mouse TNF alpha quantification assay (LPS-stimulated RAW 264.7, ELISA); type: cell-based; details: RAW 264.7 murine leukemia virus transformed macrophage cell lines, LPS stimulation; for inhibition at 30 µM: Mus musculus, RAW264.7, 30 μM, read-out: TNF-α % Inhibition at 30 μM
Description: (§1) Cell lines: Abelson murine leukemia virus transformed macrophage cell line RAW 264.7 was purchased from ATCC and grown in complete DMEM-High Glucose medium supplemented with penicillin (100 U/mL), streptomycin (100 μg/mL), and 10% heat-inactivated FBS at 37° C. in a humidified incubator with 5% CO2.
(§2) Method: Cells were plated at 40000 cells/well density in a 96-wells plate. After a 3-hour incubation, macrophages were starved with DMEM plus 0.5% FBS o/n. The next day the small molecules to be tested were added to the cells in the final concentration of 30 μM (with 0.3% DMSO) 3 hours prior to LPS stimulation (100 ng/ml). After LPS stimulation cells were incubated at 37° C. for 16h. At the end of the incubation period, culture media were collected and production of LPS-induced TNFα and IL6 cytokine was measured using ELISA detection kits.
(§3) Sandwich ELISA: The ELISA Immunoassays Quantikine Mouse TNF-alpha (catalog number MTA00B) and IL6 (catalog number M6000B) were purchased from R&D Systems Inc., Minneapolis, Minn. These 4.5 hours solid phase ELISAs were used to measure mouse TNFα or IL6 levels in macrophages culture supernatants. Assays were executed according to the manufacturer specifications.

IL6 = assay: Mouse IL6 quantification assay (LPS-stimulated RAW 264.7, ELISA); type: cell-based; details: RAW 264.7 murine leukemia virus transformed macrophage cell lines, LPS stimulation; for inhibition at 30 µM: Mus musculus, RAW264.7, 30 μM, read-out: IL-6 % Inhibition at 30 μM
Description: as §1, §2, §3

[1] = target: KRas G12D/Q61H double mutant (Homo sapiens (Human), UniProt P01116, G12D/Q61H); assay: Ras GTP binding domain inhibition assay
Description: (§4) Buffer-I: • 50 mM Tris, pH 7.5 • 150 mM NaCl (optional) • 1 mM MgCl2 • 1 mM DTT. • KRas G12D mutant protein was expressed as a His-tagged protein. Purified His-KRas G12D protein was diluted in buffer-I to a final concentration of 3-10 μg/ml. • 200 μl of the diluted His-KRas G12D protein was added to a nickel coated 96 well plate and incubated overnight at 4° C. • The next day, wells were washed 3× in 200 μl of Buffer-I. • Then 200 μl of Buffer-I were added to each well in the presence of 1% DMSO. • Tested compounds were added to the protein-coated wells at a concentration of 20 μM, and incubated for 3 hours at room temperature. While performing IC50 measurements a serial dilution of all tested concentrations was prepared.
(§5) Then 22 μl of Cy3-GTP or Cy5-GTP was added to each well. The labeled GTP was incubated for 45 min. at room temperature. • Following GTP incubation, wells were washed 3× in Buffer-I, and 200 μl of Buffer-I were added to each well. • Following washes, the amount of bound labeled-GTP was measured with an Eppendorf AF2200 plate reader.
By substituting KRas G12D mutant protein with KRas G12C mutant, KRas wild type, KRas Q61H mutant, KRas G12D/Q61H double mutant or KRas G12C/Q61H double mutant under the assay conditions described above, KRas G12C mutant KRas wild type, KRas Q61H mutant, KRas G12D/Q61H double mutant and KRas G12C/Q61H double mutant inhibition, respectively, were each determined.

Rac-1 = Rac-1 (Homo sapiens (Human), UniProt P63000); assay: Rac and Rho inhibition assay; type: binding; details: read-out: Rac-1 % Inh.
Description: as §4, §5
(§6) By substituting KRas G12D mutant protein with either Rac-1 or Rho-A under the assay conditions described in Example 5, Rac-1 and Rho-A inhibition, respectively, were each determined.

Rho-A = Rho-A (Homo sapiens (Human), UniProt P61586); assay: Rac and Rho inhibition assay; type: binding; details: read-out: Rho-A % Inh.
Description: as §4, §5, §6

[2] = at 20 μM, read-out: KRas G12D Q61H % Inh.
[3] = 20 μM compound, read-out: % Inhibition at 20 μM, KRas G12D Q61H

Chain of KRas G12D/Q61H double mutant (P01116-2 other isoform, or with tags, fused parts or gaps G12D/Q61H): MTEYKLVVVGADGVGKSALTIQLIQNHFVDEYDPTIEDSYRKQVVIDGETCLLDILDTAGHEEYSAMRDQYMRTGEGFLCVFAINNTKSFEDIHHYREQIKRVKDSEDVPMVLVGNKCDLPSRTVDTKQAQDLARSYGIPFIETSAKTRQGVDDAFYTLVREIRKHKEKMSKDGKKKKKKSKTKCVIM
Chain of Rho-A (P61586 whole entry): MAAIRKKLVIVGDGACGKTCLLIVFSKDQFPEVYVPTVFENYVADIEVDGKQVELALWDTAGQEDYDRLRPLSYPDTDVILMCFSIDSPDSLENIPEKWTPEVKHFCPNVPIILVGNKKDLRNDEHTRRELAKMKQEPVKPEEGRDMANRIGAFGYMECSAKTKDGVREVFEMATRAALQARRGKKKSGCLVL

## Nc1nc(-c2ccccn2)nc2c(C3CCCC3)csc12
TNFα
  inhibition at 30 µM: 26 to 50%
IL6
  inhibition at 30 µM: 51 to 75%

## Nc1nc(-c2ccccn2)nc2c(C3CCCCC3)csc12
TNFα
  inhibition at 30 µM: 0%
IL6
  inhibition at 30 µM: 0%

## COc1ccc(CCNC(=O)c2csc3nc(-c4ccccn4)nc(N4CCSCC4)c23)cn1 [drawing 2280]
TNFα
  inhibition at 30 µM: 0%
IL6
  inhibition at 30 µM: 26 to 50%

## O=C(c1csc2c(O)nc(-c3ccccn3)nc12)N1CCN(c2ccc(O)c(O)c2)CC1
[1]; [2]
  inhibition at 20 µM: 51 to 75%
Rac-1
  inhibition at 20 µM: 76 to 100%
Rho-A
  inhibition at 20 µM: 76 to 100%

## Oc1nc(-c2ccccn2)nc2c(-c3cnc4ccccc4c3)csc12
Rac-1
  inhibition at 20 µM: 51 to 75%
Rho-A
  inhibition at 20 µM: 51 to 75%

## CCC1N=C(C)C=C1c1csc2c(O)nc(-c3ccccn3)nc12 (centres unmarked)
[1]; [2]
  inhibition at 20 µM: 51 to 75%
Rac-1
  inhibition at 20 µM: 51 to 75%
Rho-A
  inhibition at 20 µM: 76 to 100%

## Cc1sc2c(O)nc(-c3ccccn3)nc2c1-c1ccccc1
TNFα
  TNF-α % Inhibition at 30 μM: A (A = 1-25% inhibition)
IL6
  IL-6 % Inhibition at 30 μM: C (C = 51-75% inhibition)

## CC(C)COc1ccc(-c2csc3c(O)nc(-c4ccccn4)nc23)cn1
Rac-1
  inhibition at 20 µM: 76 to 100%

## O=C(c1ccc(S(=O)(=O)N2CCOCC2)cc1)N(Cc1ccccc1)Cc1cccs1
[1]; [3]
  inhibition at 20 µM: 1 to 25%

## OC[C@H]1O[C@@H](c2csc3c2N=C(c2ccccn2)NC3O)[C@H](O)[C@@H]1O (some centres unmarked) [drawing 3871]
Rac-1
  inhibition at 20 µM: 51 to 75%
Rho-A
  inhibition at 20 µM: 51 to 75%

## COCC(C)Nc1nc(-c2ccccc2)nc2sc(-c3ccncc3)c(-c3ccccc3)c12 (centres unmarked)
TNFα
  inhibition at 30 µM: 26 to 50%
IL6
  inhibition at 30 µM: 0%

## O=C(NCCc1cnc(O)nc1)c1csc2nc(-c3ccccn3)nc(N3CCSCC3)c12 [drawing 3752]
[1]; [2]
  inhibition at 20 µM: 25 to 50%
Rac-1
  inhibition at 20 µM: 51 to 75%
Rho-A
  inhibition at 20 µM: 51 to 75%

## CCN(Cc1cnc(S(=O)(=O)N(C)C)o1)c1ccccc1
[1]; [3]
  inhibition at 20 µM: 25 to 50%

## Cc1sc2c(O)nc(-c3ccccn3)nc2c1C(=O)N1CCN(Cc2cccc(O)c2)CC1
Rac-1
  inhibition at 20 µM: 76 to 100%
Rho-A
  inhibition at 20 µM: 76 to 100%

## COCCCCNC(=O)c1csc2nc(-c3ccccn3)nc(O)c12
[1]; [2]
  inhibition at 20 µM: 1 to 25%
Rac-1
  inhibition at 20 µM: 1 to 25%
Rho-A
  inhibition at 20 µM: 1 to 25%

## Cc1sc2c(O)nc(-c3ccccn3)nc2c1Br [drawing 2383]
TNFα
  TNF-α % Inhibition at 30 μM: 0 (0 = 0% inhibition)

## FC(F)(F)c1cccc(N2CCN(c3cc(Cl)nc4ncnn34)CC2)c1
[1]; [3]
  inhibition at 20 µM: 25 to 50%

## COC(=O)c1c(C)sc2nc(-c3ccccn3)nc(N)c12
Rac-1
  inhibition at 20 µM: 25 to 50%
Rho-A
  inhibition at 20 µM: 51 to 75%

## Nc1cccc(-c2csc3c(N)nc(-c4ccccn4)nc23)n1
TNFα
  inhibition at 30 µM: 26 to 50%
IL6
  inhibition at 30 µM: 76 to 100%

## CCC(C)c1csc2c(OC)nc(-c3ccccn3)nc12 (centres unmarked)
Rac-1
  inhibition at 20 µM: 76 to 100%

## Oc1nc(-c2ccccn2)nc2c(-c3cccnc3)c(C(F)(F)F)sc12
TNFα
  inhibition at 30 µM: 0%
IL6
  inhibition at 30 µM: 51 to 75%

## Oc1nc(-c2ccccn2)nc2c(-c3ccccc3C(F)F)csc12
Rac-1
  inhibition at 20 µM: 76 to 100%
Rho-A
  inhibition at 20 µM: 76 to 100%

## O=C(O)c1csc2nc(-c3ccccn3)nc(O)c12
TNFα
  inhibition at 30 µM: 1 to 25%
IL6
  inhibition at 30 µM: 1 to 25%

## COc1cnc(CNC(=O)c2c(C)sc3c(O)nc(-c4ccccn4)nc23)[nH]c1=O
Rac-1
  inhibition at 20 µM: 1 to 25%
Rho-A
  inhibition at 20 µM: 1 to 25%

## O=C(c1csc2c(O)nc(-c3ccccn3)nc12)N1CCNC(c2cn[nH]c2)C1 (centres unmarked)
Rac-1
  inhibition at 20 µM: 76 to 100%

## CCC1=CC2C(=O)NC(c3ccccn3)=NC2S1 (centres unmarked)
[1]; [3]
  inhibition at 20 µM: 25 to 50%

## CCOC(=O)c1ccnc(N2CCC(C)CC2c2ccc(CC)o2)c1[N+](=O)[O-] (centres unmarked)
[1]; 20 μM, read-out: KRas G12D Q61H % Inh.
  inhibition at 20 µM: 51 to 75%

## OC[C@H]1O[C@@H](c2csc3c2N=C(c2ccccn2)NC3O)[C@H](O)[C@@H]1O (some centres unmarked) [drawing 2388]
TNFα
  inhibition at 30 µM: 26 to 50%
IL6
  inhibition at 30 µM: 1 to 25%

## Cc1sc2c(O)nc(-c3ccccn3)nc2c1Br [drawing 2319]
IL6
  IL-6 % Inhibition at 30 μM: A (A = 1-25% inhibition)

## Oc1nc(-c2ccccn2)nc2c(-c3cc(C(F)(F)F)ccc3F)csc12
Rho-A
  inhibition at 20 µM: 1 to 25%

From patent publication US11541041B1, “Compounds that interact with the Ras superfamily for the treatment of cancers, inflammatory diseases, Rasopathies, and fibrotic disease” (Shy Therapeutics LLC, priority 2017, dated 2023)
